The values that follow come from US8466193B2, “Selective inhibitors of histone deacetylase” (Pharmacyclics, Inc., priority 2008, dated 2013).

Data set [1] addresses T1, HDAC8 (Homo sapiens, UniProt Q9BY41).
T1 sequence (Q9BY41 1-377): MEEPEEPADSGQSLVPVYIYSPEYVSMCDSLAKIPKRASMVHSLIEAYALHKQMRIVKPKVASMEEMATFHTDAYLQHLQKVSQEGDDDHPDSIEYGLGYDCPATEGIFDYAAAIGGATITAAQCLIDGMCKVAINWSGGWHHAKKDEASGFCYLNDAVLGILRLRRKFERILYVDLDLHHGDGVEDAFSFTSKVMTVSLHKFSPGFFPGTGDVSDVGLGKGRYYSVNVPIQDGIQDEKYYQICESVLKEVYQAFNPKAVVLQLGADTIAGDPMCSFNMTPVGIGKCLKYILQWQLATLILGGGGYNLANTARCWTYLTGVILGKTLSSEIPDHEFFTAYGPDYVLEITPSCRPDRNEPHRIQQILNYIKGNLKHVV
Description: Histone deacetylase activity, continuous trypsin-coupled assay. The data set is classed as biochemical. Conditions: 15 minutes preincubation; substrate acetyl-Gly-Ala-(N-acetyl-Lys)-AMC. Here is the method: (§1) HDAC activity was measured using a continuous trypsin-coupled assay that has been described in detail previously (US 20070281934; Schultz et. al., Biochemistry, 43 (34), 11083-11091, 2004; Kim et al. (2006), Methods Mol. Biol., 325:273-283). For inhibitor characterization, measurements were performed in a reaction volume of 100 μL using 96-well assay plates in a fluorescence plate reader. For each isozyme, the HDAC protein in reaction buffer (50 mM HEPES, 100 mM KCl, 0.001% Tween-20, 5% DMSO, pH 7.4, supplemented with bovine serum albumin at concentrations of 0-0.05%, was mixed with inhibitor at various concentrations and allowed to incubate for 15 minutes. Trypsin was added to a final concentration of 50 nM, and acetyl-Gly-Ala-(N-acetyl-Lys)-AMC was added to a final concentration of 25-100 μM to initiate the reaction. After a 30 minute lag time, the fluorescence was measured over a 30 minute time frame using an excitation wavelength of 355 nm and a detection wavelength of 460 nm. The increase in fluorescence with time was used as the measure of the reaction rate. Inhibition constants Ki(app) were obtained using the program BatchKi (Biokin, Pullman, Wash.).

In data set [2] the target is HDAC1 (Homo sapiens, UniProt Q13547). Described as above. The data set is classed as biochemical. Conditions: 15 minutes preincubation; substrate acetyl-Gly-Ala-(N-acetyl-Lys)-AMC. Here is the method: as §1
Data set [3] is described as follows: Pharmacokinetic analysis in male rats, oral gavage. The data set is classed as in vivo. Conditions: CD IGS (Sprague-Dawley derived), rat, plasma, orally at 3 mg/kg, compounds administered in combination. As to the method: This study, performed in male rats with test compounds (Compound 303 and Compound 316), was designed to provide preliminary information on their pharmacokinetics. The test compounds were administered in combination by oral gavage.
The specifications for rats used on this study are as follows: • Strain: CD® IGS rats (Sprague-Dawley derived) • Source: Charles River Laboratories • Surgical modification for oral dosing: One portal vein cannula and one jugular vein cannula • Body weight range at dosing 350 to 375 g
The rats were acclimatized to laboratory conditions for at least 24 hours before dosing. The evening before dosing, food was withheld from the rats and was returned immediately following the 3-hour blood collection time point. Water was provided ad libitum. The rats were housed individually in translucent polycarbonate cages.
Test compounds were prepared as 3.0 mg/ml solutions (1% MC/0.4% Cr EL in WFI).
Rats were administered a single dose of test compound in combination by oral gavage. Dose volumes were adjusted based on body weight data collected immediately prior to dosing.
The dose volume was 1 ml/kg and the nominal dosage was 3 mg/kg.
Blood samples were collected at 5 minutes, 20 minutes, 1 hour, 3 hours, 6 hours, 9 hours, and 24 hours post-dosing from orally dosed rats. The samples were collected into plasma separator Microtainer tubes with anticoagulant (lithium heparin). Plasma samples were prepared by centrifugation (5 min at 5000×g), and at least 100 μL were transferred to storage tubes and frozen on dry ice. Samples were maintained at approximately −75 C until prepared for analysis.
Plasma samples were thawed and 75 uL aliquots were transferred to centrifuge tubes to which 10 μL aliquots of internal standard solution (0.5 μg/mL) were added. The samples were not diluted with blank plasma prior to further processing. Soluble proteins were precipitated by the addition of 300 μL of methanol, followed by centrifugation (20 min at 16,000×g). The samples were evaporated to dryness and reconstituted in 100 μL of water containing 0.2% formic acid and 10% methanol. All samples were loaded onto an autosampler maintained at 6° C. and evaluated for concentrations of test compound using LC-MS/MS. lasma concentration data were evaluated using the computer program WinNonlin (Professional Edition, Pharsight Corporation, version 5.01). […]
Pan HDAC inhibitor 3-((dimethylamino)methyl)-N-(2-(4-(hydroxycarbamoyl)phenoxy)ethyl)benzofuran-2-carboxamide was added to the cassette to serve as a standard since the pharmacokinetics of this compound have been determined previously in rats. The UC's determined for rats administered Compound 303 and Compound 316 orally at 3 mg/kg were 1.42, and 5.36 μg·h/mL, respectively. […]

Structures are written as SMILES. Bounds are passed on as bounds.

HDAC1, sequence (Q13547 whole entry, species assumed): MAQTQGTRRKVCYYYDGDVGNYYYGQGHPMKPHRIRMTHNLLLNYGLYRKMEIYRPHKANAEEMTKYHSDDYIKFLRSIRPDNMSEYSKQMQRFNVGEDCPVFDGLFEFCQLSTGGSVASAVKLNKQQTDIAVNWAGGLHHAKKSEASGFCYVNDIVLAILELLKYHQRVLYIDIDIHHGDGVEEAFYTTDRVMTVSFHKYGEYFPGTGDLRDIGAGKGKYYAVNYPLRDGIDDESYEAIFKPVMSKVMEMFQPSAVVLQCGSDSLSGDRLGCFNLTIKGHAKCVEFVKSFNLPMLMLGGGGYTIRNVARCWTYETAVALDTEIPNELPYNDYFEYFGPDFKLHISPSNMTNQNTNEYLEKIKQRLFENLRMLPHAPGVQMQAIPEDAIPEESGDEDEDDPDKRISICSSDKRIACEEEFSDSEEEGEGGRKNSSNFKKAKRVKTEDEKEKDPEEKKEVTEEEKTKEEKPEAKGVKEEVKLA

As to `O=C(NO)c1ccc2ccn(CCOc3ccccc3)c2c1` [Compound 316, N-hydroxy-1-(2-phenoxyethyl)-1H-indole-6-carboxamide], the results for the concentration for half-maximal inhibition (IC50) in data set [1] and in data set [2] were under 1 µM and over 10 µM, respectively. Besides, the exposure (AUC) – broadly, the area under the concentration-time curve, a measure of exposure – in data set [3] came out at 5360 ng·h/mL. Also, in data set [3], the Cmax (commonly the highest concentration seen after dosing) was found to be 828 ng/mL.
